PubChem BioAssay (NCI)
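48-hour exposure; five concentrations; linearly interpolated endpoints. TGI marks complete inhibition of growth.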

Key:
Experiment in all cases: NCI tumour cell line growth inhibition, 48 h
XF 498 CNS = test system: XF 498 CNS
SF-295 CNS = test system: SF-295 CNS
786-0 renal = test system: 786-0 renal
IGROV1 ovarian = test system: IGROV1 ovarian
SW-620 colon = test system: SW-620 colon
M19-MEL melanoma = test system: M19-MEL melanoma
COLO 205 colon = test system: COLO 205 colon
CAKI-1 renal = test system: CAKI-1 renal
TK-10 renal = test system: TK-10 renal
SF-268 CNS = test system: SF-268 CNS
DMS 114 small cell lung = test system: DMS 114 small cell lung
UO-31 renal = test system: UO-31 renal
HOP-62 NSCLC = test system: HOP-62 NSCLC
DLD-1 colon = test system: DLD-1 colon
A549 NSCLC = test system: A549 NSCLC
OVCAR-3 ovarian = test system: OVCAR-3 ovarian
KM12 colon = test system: KM12 colon
EKVX NSCLC = test system: EKVX NSCLC
MALME-3M melanoma = test system: MALME-3M melanoma
U251 CNS = test system: U251 CNS
MOLT-4 leukemia = test system: MOLT-4 leukemia
SF-539 CNS = test system: SF-539 CNS
KM20L2 colon = test system: KM20L2 colon
SNB-75 CNS = test system: SNB-75 CNS
SK-OV-3 ovarian = test system: SK-OV-3 ovarian
RPMI-8226 leukemia = test system: RPMI-8226 leukemia
HCT-15 colon = test system: HCT-15 colon
OVCAR-4 ovarian = test system: OVCAR-4 ovarian
HL-60(TB) leukemia = test system: HL-60(TB) leukemia
A498 renal = test system: A498 renal
OVCAR-5 ovarian = test system: OVCAR-5 ovarian
NCI-H23 lung = test system: NCI-H23 lung
DMS 273 small cell lung = test system: DMS 273 small cell lung
SK-MEL-5 melanoma = test system: SK-MEL-5 melanoma
NCI-H460 lung = test system: NCI-H460 lung
HOP-18 NSCLC = test system: HOP-18 NSCLC
K-562 leukemia = test system: K-562 leukemia
HCC-2998 colon = test system: HCC-2998 colon
HT29 colon = test system: HT29 colon
SK-MEL-2 melanoma = test system: SK-MEL-2 melanoma
OVCAR-8 ovarian = test system: OVCAR-8 ovarian
CCRF-CEM leukemia = test system: CCRF-CEM leukemia
ACHN renal = test system: ACHN renal
NCI-H226 lung = test system: NCI-H226 lung
SNB-78 CNS = test system: SNB-78 CNS
SNB-19 CNS = test system: SNB-19 CNS
UACC-62 melanoma = test system: UACC-62 melanoma
SK-MEL-28 melanoma = test system: SK-MEL-28 melanoma
LOX IMVI melanoma = test system: LOX IMVI melanoma
UACC-257 melanoma = test system: UACC-257 melanoma
M14 melanoma = test system: M14 melanoma
HCT-116 colon = test system: HCT-116 colon
HOP-92 NSCLC = test system: HOP-92 NSCLC

Measured: TGI

O=C1Cc2ccccc2N1/N=C\c1ccc([N+](=O)[O-])cc1
> 100 µM: all assays above
